Patent publication US7868173B2, “Prodrugs of benzoquinolizine-2-carboxylic acid” (Wockhardt Limited, priority 2006, dated 2011)

How the values were obtained:
[1] = Solubility analysis: aqueous solubility in buffer at physiological pH; format: physicochemical; conditions: 25-30° C.
Protocol: Solubility analysis: Method for determining aqueous solubility at different physiological pH at 25-30° C. temperature: To accurately weighed amount of test substance, particular buffer solution was added in portion (about 50 microliter portions) at 25-30° C. temperature till solid is completely dissolved and clear solution is obtained.

[2] = rats, intravenous route; cited from earlier work
[3] = Pharmacokinetic (PK) study in Sprague Dawley rats, oral dose; format: in vivo; conditions: rat
Protocol: Method for pharmacokinetic (PK) study in Sprague Dawley rats: Pharmacokinetic study was conducted on male Sprague Dawley rats weighing 200-220 g fasted overnight. (2′S,5S)-9-fluoro-6,7-dihydro-8-(4-L-alaninyloxy-piperidin-1-yl)-5-methyl-1-oxo-1H,5H-benzo[i,j]-quinolizine-2-carboxylic acid methanesulfonic acid salt (A), (2′S,5S)-9-fluoro-6,7-dihydro-8-(4-L-alaninyloxy-piperidin-1-yl)-5-methyl-1-oxo-1H,5H-benzo[i,j]quinolizine-2-carboxylic acid hydrochloride salt (B) and (2′S,5S)-9-fluoro-6,7-dihydro-8-(4-L-valinyloxy-piperidin-1-yl)-5-methyl-1-oxo-1H,5H-benzo[i,j]quinolizine-2-carboxylic acid methanesulfonic acid salt (C) were dissolved in Milli Q water. Compounds A, B and C were administered at the dose of 50 mg/kg orally calculated on the basis of active ingredient. (5S)-9-fluoro -6,7-dihydro-8-(4-hydroxy-piperidin-1-yl)-5-methyl-1-oxo-1H,5H-benzo[i,j]quinolizine-2-carboxylic acid L-arginine salt (D) was dissolved in 1% Tween prior to use. Compounds A and D were administered at the dose of 200 mg/kg orally calculated on the basis of active ingredient. Dose volume was 0.5 ml/200g. Blood samples were collected at predetermined time intervals i.e. 0, 0.5, 1, 2, 4, 6 & 8 h in eppendorff vials containing 10 μl saturated solution of sodium fluoride. Plasma was collected after centrifugation of blood sample at 10000 rpm for 10 min. Plasma samples were analyzed on HPLC for determining drug levels. PK parameters AUC, Cmax were calculated by non-compartmental analysis by using Winnonlin software.

[4] = repeated intravenous administration, injectable form; cited from earlier work
[5] = Oral bioavailability in animals; format: in vivo
[6] = over the pH range 8.0-9.5 at 28° C.; cited from earlier work
[7] = as compared to B, 50 mg/kg per os dose
[8] = as compared to D, 200 mg/kg per os dose
[9] = as compared to D, 50 mg/kg per os dose

## C[C@H](N)C(=O)OC1CCN(c2c(F)cc3c(=O)c(C(=O)O)cn4c3c2CC[C@@H]4C)CC1.Cl
[1]
  Solubility (mg/ml) at pH 7: 4 mg/ml

## CC(C)[C@H](N)C(=O)OC1CCN(c2c(F)cc3c(=O)c(C(=O)O)cn4c3c2CC[C@@H]4C)CC1.CS(=O)(=O)O
[1]
  Solubility (mg/ml) at pH 7: >200 mg/ml

## CC(C)[C@H](N)C(=O)OC1CCN(c2c(F)cc3c(=O)c(C(=O)O)cn4c3c2CC[C@@H]4C)CC1 [(2′S,5S)-9-fluoro-6,7-dihydro-8-(4-L-valinyloxy-piperidin-1-yl)-5-methyl-1-oxo-1H,5H-benzo[i,j]quinolizine-2-carboxylic acid, reference compound]
[1]
  Solubility (mg/ml) at pH 7: <1 mg/ml

## C[C@H]1CCc2c(N3CCC(O)CC3)c(F)cc3c(=O)c(C(=O)O)cn1c23.N=C(N)NCCC[C@H](N)C(=O)O [(5S)-9-fluoro-6,7-dihydro-8-(4-hydroxy-piperidin-1-yl)-5-methyl-1-oxo-1H,5H-benzo[i,j]quinolizine-2-carboxylic acid L-arginine salt]
[2]
  propensity to cause phlebitis: lower propensity to cause phlebitis

## CS(=O)(=O)O.C[C@H](N)C(=O)OC1CCN(c2c(F)cc3c(=O)c(C(=O)O)cn4c3c2CC[C@@H]4C)CC1 [A, (2′S,5S)-9-fluoro-6,7-dihydro-8-(4-L-alaninyloxy-piperidin-1-yl)-5-methyl-1-oxo-1H,5H-benzo[i,j]-quinolizine-2-carboxylic acid methanesulfonic acid salt]
[3]; [7]
  % Increase in AUC: 175%
  % Increase in Cmax: 300%
[3]; [8]
  % Increase in AUC: 120%
  % Increase in Cmax: 200%
[1]
  Solubility (mg/ml) at pH 7: >200 mg/ml

## CC(C)[C@H](N)C(=O)OC1CCN(c2c(F)cc3c(=O)c(C(=O)O)cn4c3c2CC[C@@H]4C)CC1.CS(=O)(=O)O [C, (2′S,5S)-9-fluoro-6,7-dihydro-8-(4-L-valinyloxy-piperidin-1-yl)-5-methyl-1-oxo-1H,5H-benzo[i,j]quinolizine-2-carboxylic acid methanesulfonic acid salt]
[3]; [9]
  % Increase in AUC: 92%
  % Increase in Cmax: 97%

## C[C@H]1CCc2c(N3CCC(O)CC3)c(F)cc3c(=O)c(C(=O)O)cn1c23.N=C(N)NCCC[C@H](N)C(=O)O.O.O.O.O [S-(−)-9-fluoro-6,7-dihydro-8-(4-hydroxypiperidin-1-yl)-5-methyl-1-oxo-1H,5H-benzo[i,j]quinolizine-2-carboxylic acid L-arginine salt tetrahydrate]
[4]
  venous inflammation: not causing venous inflammation
[5]
  oral bioavailability: poor

## C[C@H]1CCc2c(N3CCC(O)CC3)c(F)cc3c(=O)c(C(=O)[O-])cn1c23.[Na+] [S-(−)-9-fluoro-6,7-dihydro-8-(4-hydroxypiperidin-1-yl)-5-methyl-1-oxo-1H,5H-benzo[i,j]quinolizine-2-carboxylic acid sodium salt]
[2]
  propensity to cause phlebitis: high propensity to cause phlebitis

## S-(−)-9-fluoro-6,7-dihydro-8-(4-hydroxypiperidin-1-yl)-5-methyl-1-oxo-1H,5H-benzo[i,j]quinolizine-2-carboxylic acid
[1]
  Solubility (mg/ml) at pH 7: <1 mg/ml
[6]
  aqueous solubility: 800 to 2000 µg/mL
[5]
  oral bioavailability: poor
